Legend:
[1] = molecular target: N-acetylated, α-linked, acidic dipeptidase (NAALADase) (Homo sapiens, UniProt Q04609); test: inhibition of NAALADase by clavulanic acid (applicant's discovery, no method given); assay type: biochemical; conditions: statement in words, no data
serine β-lactamase = conditions: background statement in words; cited from earlier work
bacteria = conditions: clavulanic acid alone; background statement in words; cited from earlier work

Sequence of N-acetylated, α-linked, acidic dipeptidase (NAALADase) (Q04609 whole entry): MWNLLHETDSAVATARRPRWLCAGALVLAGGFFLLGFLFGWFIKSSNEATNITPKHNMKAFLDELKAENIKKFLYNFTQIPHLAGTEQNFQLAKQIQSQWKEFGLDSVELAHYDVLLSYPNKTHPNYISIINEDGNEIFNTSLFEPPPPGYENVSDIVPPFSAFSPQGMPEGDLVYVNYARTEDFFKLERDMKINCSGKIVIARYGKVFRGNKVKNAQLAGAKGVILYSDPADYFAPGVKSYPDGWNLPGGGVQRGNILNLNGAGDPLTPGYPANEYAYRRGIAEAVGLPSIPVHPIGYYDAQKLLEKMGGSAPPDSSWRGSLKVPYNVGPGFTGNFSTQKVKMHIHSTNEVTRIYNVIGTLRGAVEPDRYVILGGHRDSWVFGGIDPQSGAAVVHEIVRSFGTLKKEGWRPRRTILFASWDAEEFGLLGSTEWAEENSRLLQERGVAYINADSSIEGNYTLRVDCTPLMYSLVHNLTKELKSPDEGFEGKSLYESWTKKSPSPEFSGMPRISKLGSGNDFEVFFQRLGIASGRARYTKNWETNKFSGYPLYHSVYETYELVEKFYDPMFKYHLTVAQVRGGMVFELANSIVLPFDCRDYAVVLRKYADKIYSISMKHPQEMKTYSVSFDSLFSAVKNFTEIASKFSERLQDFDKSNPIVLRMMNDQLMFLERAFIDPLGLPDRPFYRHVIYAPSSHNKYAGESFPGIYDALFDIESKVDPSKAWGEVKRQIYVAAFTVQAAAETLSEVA

O=C(O)[C@H]1/C(=C/CO)O[C@@H]2CC(=O)N21 [clavulanic acid]
inhibition of NAALADase [1]: potent inhibitor | binding affinity for the serine β-lactamases (serine β-lactamase): very high binding affinity | inhibition of "serine" β-lactamase (serine β-lactamase): potent inhibitor | antibacterial activity (bacteria): only weak, though broad spectrum, antibacterial activity

— patent US20040072815A1, “Antibiotic composition and method” (priority 2003, published 2004)
